The values below come from PMC2746095 (Biochemistry, 2009).

Assay [1] addresses T1, R. etli pyruvate carboxylase (RePC) (Rhizobium etli, UniProt Q2K340, T882A).
T1 sequence (Q2K340 1-1154 T882A): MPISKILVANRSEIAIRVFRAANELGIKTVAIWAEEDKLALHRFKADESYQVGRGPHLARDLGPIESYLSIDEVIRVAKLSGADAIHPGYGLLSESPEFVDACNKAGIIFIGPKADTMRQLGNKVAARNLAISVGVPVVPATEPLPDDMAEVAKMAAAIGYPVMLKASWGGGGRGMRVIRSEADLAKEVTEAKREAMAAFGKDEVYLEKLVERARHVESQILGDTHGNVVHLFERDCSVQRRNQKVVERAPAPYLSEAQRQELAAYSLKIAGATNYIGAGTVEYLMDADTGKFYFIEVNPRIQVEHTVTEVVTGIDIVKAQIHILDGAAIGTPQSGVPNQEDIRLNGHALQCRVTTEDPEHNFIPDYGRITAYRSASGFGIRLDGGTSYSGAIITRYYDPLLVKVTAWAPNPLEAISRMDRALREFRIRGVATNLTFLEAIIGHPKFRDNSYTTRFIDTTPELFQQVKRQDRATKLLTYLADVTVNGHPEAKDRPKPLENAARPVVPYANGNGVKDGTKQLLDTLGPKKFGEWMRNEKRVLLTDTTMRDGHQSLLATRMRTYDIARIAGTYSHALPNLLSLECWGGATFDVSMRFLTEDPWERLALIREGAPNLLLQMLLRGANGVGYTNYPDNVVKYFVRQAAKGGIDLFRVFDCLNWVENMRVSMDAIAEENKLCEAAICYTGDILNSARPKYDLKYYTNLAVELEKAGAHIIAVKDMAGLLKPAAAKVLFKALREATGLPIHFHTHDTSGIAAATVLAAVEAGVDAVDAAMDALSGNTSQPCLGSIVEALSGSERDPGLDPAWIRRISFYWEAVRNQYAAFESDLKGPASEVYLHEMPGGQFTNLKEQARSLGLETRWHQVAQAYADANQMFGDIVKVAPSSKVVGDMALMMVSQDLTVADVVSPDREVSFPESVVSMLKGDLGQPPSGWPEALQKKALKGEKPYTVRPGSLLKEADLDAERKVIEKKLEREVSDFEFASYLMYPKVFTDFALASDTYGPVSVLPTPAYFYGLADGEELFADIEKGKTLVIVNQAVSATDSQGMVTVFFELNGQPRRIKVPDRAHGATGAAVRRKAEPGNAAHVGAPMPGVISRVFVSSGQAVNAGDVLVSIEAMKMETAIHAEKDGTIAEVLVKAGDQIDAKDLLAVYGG
The assay is described as follows: bicarbonate-dependent ATPase, coupled Pi assay, partial inhibition fit. It counts as biochemical.

The target in assay [2] is T2, R. etli pyruvate carboxylase (RePC) (Rhizobium etli, UniProt Q2K340).
T2 sequence (Q2K340 1-1154): T1 sequence (Q2K340 1-1154 T882A) with A882T
The assay is described as follows: bicarbonate-dependent ATPase, coupled Pi assay, fit to substrate inhibition. It counts as biochemical. The settings on record: 0-20 mM pyruvate, text prints 10.2 ± 0.1 mM, 100 mM Tricine pH 7.5, 25 °C, 10 mM HCO3-, 2.5 mM MgATP, 2.5 mM MgCl2, 0.25 mM acetyl-CoA.

The structures appear in SMILES notation. Residue numbers refer to the chain shown, from its start.

Consider `CC(=O)C(=O)O` [pyruvate], for which the Ki is 800 ± 100 µM in assay [1] and 10000 ± 1000 µM in assay [2]. `NC(=O)C(=O)O` [oxamate]: the Ki in assay [1] turned out to be 1000 ± 200 µM.
